Measured values as given in patent US8524902B2, “[1,2,4]triazolo[4,3-f]pteridines useful as inhibitors of protein kinases” (Vertex Pharmaceuticals Incorporated, priority 2006, dated 2013).

Biological target: T1, Plk1 (Homo sapiens, UniProt P53350)
T1 construct: in the presence of 15 nM Plk1 (A20-K338)
Experiment: Plk1 inhibition assay (radioactive-phosphate incorporation)
Type: biochemical
Conditions: Ki(app) from [γ-33P]ATP incorporation, 25° C.
Protocol: Compounds of the present invention may be evaluated as inhibitors of human PLK kinase using the following assays.
Compounds were screened for their ability to inhibit Plk1 using a radioactive-phosphate incorporation assay. Assays were carried out in a mixture of 25 mM HEPES (pH 7.5), 10 mM MgCl2, and 1 mM DTT. Final substrate concentrations were 50 μM [γ-33P]ATP (136 mCi 33P ATP/mmol ATP, Amersham Pharmacia Biotech/Sigma Chemicals) and 10 μM peptide (SAM68 protein Δ332-443). Assays were carried out at 25° C. in the presence of 15 nM Plk1 (A20-K338). An assay stock buffer solution was prepared containing all of the reagents listed above, with the exception of ATP and the test compound of interest. 30 μL of the stock solution was placed in a 96 well plate followed by addition of 2 μL of DMSO stock containing serial dilutions of the test compound (typically starting from a final concentration of 10 μM with 2-fold serial dilutions) in duplicate (final DMSO concentration 5%). The plate was pre-incubated for 10 minutes at 25° C. and the reaction initiated by addition of 8 μL [γ33P]ATP (final concentration 50 μM).
(§1) The reaction was stopped after 60 minutes by the addition of 100 μL 0.14M phosphoric acid. A multiscreen phosphocellulose filter 96-well plate (Millipore, Cat no. MAPHN0B50) was pretreated with 100 μL 0.2M phosphoric acid prior to the addition of 125 μL of the stopped assay mixture. The plate was washed with 4×200 μL 0.2M phosphoric acid. After drying, 100 μL Optiphase ‘SuperMix’ liquid scintillation cocktail (Perkin Elmer) was added to the well prior to scintillation counting (1450 Microbeta Liquid Scintillation Counter, Wallac).
After removing mean background values for all of the data points, Ki(app) data were calculated from non-linear regression analysis of the initial rate data using the Prism software package (GraphPad Prism version 3.0cx for Macintosh, GraphPad Software, San Diego Calif., USA).
Compounds were screened for their ability to inhibit Plk1 using a radioactive-phosphate incorporation assay. Assays were carried out in a mixture of 25 mM HEPES (pH 7.5), 10 mM MgCl2, 0.1% BSA, and 2 mM DTT. Final substrate concentrations were 150 μM (350 μM for determining values of <1 nM) [γ-33P]ATP (115 mCi 33P ATP/mmol ATP, Amersham Pharmacia Biotech/Sigma Chemicals) and 300 μM (450 μM for determining values of <1 nM) peptide (KKKISDELMDATFADQEAK) SEQ. ID NO. 1. Assays were carried out at 25° C. in the presence of 4 nM (1 nM for determining values of <1 nM) Plk1. An assay stock buffer solution was prepared containing all of the reagents listed above, with the exception of ATP and the test compound of interest. 30 μL of the stock solution was placed in a 96 well plate followed by addition of 2 μL of DMSO stock containing serial dilutions of the test compound (typically starting from a final concentration of 10 μM with 2-fold serial dilutions) in duplicate (final DMSO concentration 5%). The plate was pre-incubated for 10 minutes at 25° C. and the reaction initiated by addition of 8 μl [γ-33P]ATP (final concentration 150 μM (350 μM for determining values of <1 nM))).
as §1, with “90” for “60”, “minutes (240 minutes for determining values of <1 nM)” for “minutes”

T1 sequence (P53350 20-338): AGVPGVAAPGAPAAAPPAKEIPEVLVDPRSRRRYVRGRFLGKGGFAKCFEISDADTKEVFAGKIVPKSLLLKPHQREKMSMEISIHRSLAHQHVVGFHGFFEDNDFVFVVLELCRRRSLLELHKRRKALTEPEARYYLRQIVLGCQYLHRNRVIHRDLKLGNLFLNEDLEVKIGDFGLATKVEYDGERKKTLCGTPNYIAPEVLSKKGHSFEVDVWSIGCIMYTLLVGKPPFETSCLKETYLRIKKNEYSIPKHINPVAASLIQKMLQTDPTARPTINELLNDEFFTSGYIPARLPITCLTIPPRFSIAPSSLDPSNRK

Compound	Ki [nM]
CC[C@@H]1c2nncn2-c2cnc(Nc3ccc(C(=O)NC4CC4)cc3)nc2N1C1CCCC1 [Compound I-11, (R)-4-(5-cyclopentyl-4-ethyl-4,5-dihydro-[1,2,4]triazolo[4,3-f]pteridin-7-ylamino)-N-cyclopropylbenzamide]	< 10
CC[C@@H]1c2nncn2-c2cnc(Nc3ccc(C(=O)NC4CCCC4)cc3OC)nc2N1C1CCCC1 [Compound I-10, (R)—N-cyclopentyl-4-(5-cyclopentyl-4-ethyl-4,5-dihydro-[1,2,4]triazolo[4,3-f]pteridin-7-ylamino)-3-methoxybenzamide]	< 10
CC[C@@H]1c2nncn2-c2cnc(Nc3ccc(C(=O)N4CC[C@H](F)C4)cc3OC)nc2N1C1CCCC1 [Compound I-12, (4-((R)-5-cyclopentyl-4-ethyl-4,5-dihydro-[1,2,4]triazolo[4,3-f]pteridin-7-ylamino)-3-methoxyphenyl)((S)-3-fluoropyrrolidin-1-yl)methanone]	< 10
CC[C@@H]1c2nncn2-c2cnc(Nc3ccc(C(=O)NC)cc3Cl)nc2N1C1CCCC1 [Compound I-4, 4-((R)-5-cyclopentyl-4-ethyl-4,5-dihydro-[1,2,4]triazolo[4,3]pteridin-7-ylamino)-3-chloro-N-methylbenzamide]	< 10
CC[C@@H]1c2nncn2-c2cnc(Nc3ccc(C(=O)NC)cc3C)nc2N1C1CCCC1 [Compound I-6, 4-((R)-5-cyclopentyl-4-ethyl-4,5-dihydro-[1,2,4]triazolo[4,3]pteridin-7-ylamino)-N,3-dimethylbenzamide]	< 10

The next lines start with the values.

Ki [nM]	Compound
< 10	CCNC(=O)c1ccc(Nc2ncc3c(n2)N(C2CCCC2)[C@H](CC)c2nncn2-3)c(OC)c1 [Compound I-18, (R)-4-(5-cyclopentyl-4-ethyl-4,5-dihydro-[1,2,4]triazolo[4,3-f]pteridin-7-ylamino)-N-ethyl-3-methoxybenzamide]
< 10	CC[C@@H]1c2nncn2-c2cnc(Nc3ccncc3)nc2N1C1CCCC1 [Compound I-23, (R)-5-cyclopentyl-4-ethyl-N-(pyridin-4-yl)-4,5-dihydro-[1,2,4]triazolo[4,3-f]pteridin-7-amine]
< 10	CC[C@@H]1c2nncn2-c2cnc(Nc3ccc(F)cc3)nc2N1C1CCCC1 [Compound I-35, (R)-5-cyclopentyl-4-ethyl-N-(4-fluorophenyl)-4,5-dihydro-[1,2,4]triazolo[4,3-f]pteridin-7-amine]
< 10	CC[C@@H]1c2nncn2-c2cnc(Nc3ccc(C(=O)NC4CC4)cc3F)nc2N1C1CCCC1 [Compound I-14, (R)-4-(5-cyclopentyl-4-ethyl-4,5-dihydro-[1,2,4]triazolo[4,3-f]pteridin-7-ylamino)-N-cyclopropyl-3-fluorobenzamide]
< 10	CC[C@@H]1c2nncn2-c2cnc(Nc3ccc(C(=O)NC)cc3C(F)(F)F)nc2N1C1CCCC1 [Compound I-21, (R)-4-(5-cyclopentyl-4-ethyl-4,5-dihydro-[1,2,4]triazolo[4,3-f]pteridin-7-ylamino)-N-methyl-3-(trifluoromethyl)benzamide]
